In patent US10577332B2, “Tetrazole derivatives” (Hoffmann-La Roche Inc., priority 2015, dated 2020):

Legend:
[1] = target: T1, human EAAT3 (Homo sapiens, UniProt P43005); assay: FLIPR Membrane Potential (FMP) assay; assay type: cell-based; details: HEK-293 cells stably expressing human EAAT3; antagonist applied 15 min before L-glutamate at EC80; Kb by Cheng-Prusoff from IC50
T1 construct: expressed in transfected cells
T1 sequence (P43005 1-524): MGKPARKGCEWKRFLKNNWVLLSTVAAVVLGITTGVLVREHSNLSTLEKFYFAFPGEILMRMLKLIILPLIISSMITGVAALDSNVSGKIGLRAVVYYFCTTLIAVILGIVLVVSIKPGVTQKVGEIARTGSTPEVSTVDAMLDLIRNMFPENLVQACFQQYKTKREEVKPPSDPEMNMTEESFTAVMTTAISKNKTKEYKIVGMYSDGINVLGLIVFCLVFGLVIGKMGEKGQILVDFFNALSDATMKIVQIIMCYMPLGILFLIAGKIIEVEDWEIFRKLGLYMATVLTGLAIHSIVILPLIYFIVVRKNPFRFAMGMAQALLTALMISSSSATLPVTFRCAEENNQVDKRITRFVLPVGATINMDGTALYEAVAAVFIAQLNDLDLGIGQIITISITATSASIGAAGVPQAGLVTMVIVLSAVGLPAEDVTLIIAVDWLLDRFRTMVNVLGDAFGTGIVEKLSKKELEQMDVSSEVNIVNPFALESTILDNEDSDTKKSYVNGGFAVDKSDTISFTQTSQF
How it was run: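 HEK-293 cells stably expressing human EAAT3, loaded with membrane-potential dye 1 h at 37 °C in Krebs buffer pH 7.4. Antagonists added 15 min before L-glutamate at EC80; peak fluorescence minus basal read on FLIPR at room temperature. Kb derived from IC50 via Cheng-Prusoff.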

| melting point [°C] | Kb [1] [nM] | Structure (SMILES) |
| --- | --- | --- |
| 95 | 210 | CC(C)(NC(=O)c1cc(-c2ccc(Cl)cc2)cc(-n2nnnc2C2CC2)c1)C1CC1 [Example 81, 3-(4-Chlorophenyl)-N-(2-cyclopropylpropan-2-yl)-5-(5-cyclopropyl-tetrazol-1-yl)-benzamide] |
| 75 | 160 | CC(C)c1nnnn1-c1cc(C(=O)NC(C)(C)C2CC2)cc(-c2ccc(F)cc2)c1 [Example 82, N-(2-Cyclopropylpropan-2-yl)-3-(4-fluorophenyl)-5-(5-propan-2-yltetrazol-1-yl)-benzamide] |
| 85 | 180 | Cc1nnnn1-c1cc(C(=O)NC(C)(C)C2CC2)cc(-c2ccc(Cl)cc2)c1 [Example 83, 3-(4-Chlorophenyl)-N-(2-cyclopropylpropan-2-yl)-5-(5-methyltetrazol-1-yl)-benzamide] |
| 85 | 780 | Cc1nnnn1-c1cc(C(=O)NC(C)(C)CO)cc(-c2ccc(F)cc2)c1 [Example 84, 3-(4-Fluorophenyl)-N-(1-hydroxy-2-methylpropan-2-yl)-5-(5-methyltetrazol-1-yl)-benzamide] |
| 78 | 290 | Cc1nnnn1-c1cc(C(=O)NC(C)(C)C2CC2)cc(-c2ccc(F)cc2)c1 [Example 85, N-(2-Cyclopropylpropan-2-yl)-3-(4-fluorophenyl)-5-(5-methyltetrazol-1-yl)-benzamide] |
| 86 | 200 | Cc1nnnn1-c1cc(C(=O)NC(C)(C)C(F)(F)F)cc(-c2ccc(F)cc2)c1 [Example 86, 3-(4-Fluorophenyl)-5-(5-methyltetrazol-1-yl)-N-(1,1,1-trifluoro-2-methylpropan-2-yl)-benzamide] |
| 112 | 150 | CC(C)(CO)NC(=O)c1cc(-c2ccc(Cl)cc2)cc(-n2nnnc2C(C)(C)C)c1 [Example 88, 3-(5-tert-Butyltetrazol-1-yl)-5-(4-chlorophenyl)-N-(1-hydroxy-2-methylpropan-2-yl)-benzamide] |
| 119 | 170 | CCC(C)(C)NC(=O)c1cc(-c2ccc(Cl)cc2)cc(-n2nnnc2C(C)(C)C)c1 [Example 90, 3-(5-tert-Butyltetrazol-1-yl)-5-(4-chlorophenyl)-N-(2-methylbutan-2-yl)-benzamide] |
| 230.5 | 87 | CC(C)(C)NC(=O)c1cc(-c2ccc(Cl)cc2)cc(-n2nnnc2C(C)(C)C)c1 [Example 91, N-tert-Butyl-3-(5-tert-butyltetrazol-1-yl)-5-(4-chlorophenyl)-benzamide] |
| 101 | 300 | CC(C)(C)c1nnnn1-c1cc(C(=O)NC(C)(C)C2CC2)cc(-c2ccc(Cl)cc2)c1 [Example 92, 3-(5-tert-Butyltetrazol-1-yl)-5-(4-chlorophenyl)-N-(2-cyclopropylpropan-2-yl)-benzamide] |
| 218.5 | 260 | CC(C)(C)c1nnnn1-c1cc(C(=O)NC(C)(C)C(F)(F)F)cc(-c2ccc(Cl)cc2)c1 [Example 93, 3-(5-tert-Butyltetrazol-1-yl)-5-(4-chlorophenyl)-N-(1,1,1-trifluoro-2-methylpropan-2-yl)-benzamide] |
| 212 | 250 | CC(C)(CO)NC(=O)c1cc(-c2ccc(F)cc2)cc(-n2nnnc2C(C)(C)C)c1 [Example 94, 3-(5-tert-Butyltetrazol-1-yl)-5-(4-fluorophenyl)-N-(1-hydroxy-2-methylpropan-2-yl)-benzamide] |
| 224.5 | 260 | CC(C)(C)c1nnnn1-c1cc(C(=O)NC(C)(C)C(F)(F)F)cc(-c2ccc(F)cc2)c1 [Example 96, 3-(5-tert-Butyltetrazol-1-yl)-5-(4-fluorophenyl)-N-(1,1,1-trifluoro-2-methylpropan-2-yl)-benzamide] |
| 199 | 120 | CCC(C)(C)NC(=O)c1cc(-c2ccc(F)cc2)cc(-n2nnnc2C(C)(C)C)c1 [Example 97, 3-(5-tert-Butyltetrazol-1-yl)-5-(4-fluorophenyl)-N-(2-methylbutan-2-yl)-benzamide] |
| 223.5 | 100 | CC(C)(C)NC(=O)c1cc(-c2ccc(F)cc2)cc(-n2nnnc2C(C)(C)C)c1 [Example 98, N-tert-Butyl-3-(5-tert-butyltetrazol-1-yl)-5-(4-fluorophenyl)-benzamide] |
| 201 | 200 | CC(C)(C)c1nnnn1-c1cc(C(=O)NC(C)(C)C2CC2)cc(-c2ccc(F)cc2)c1 [Example 99, 3-(5-tert-Butyltetrazol-1-yl)-N-(2-cyclopropylpropan-2-yl)-5-(4-fluorophenyl)-benzamide] |

| melting point [°C] | Kb [1] [nM] | Structure (SMILES) |
| --- | --- | --- |
| 115 | 230 | CC(C)(C#N)NC(=O)c1cc(-c2ccc(F)cc2)cc(-n2nnnc2C(C)(C)C)c1 [Example 100, 3-(5-tert-Butyltetrazol-1-yl)-N-(2-cyanopropan-2-yl)-5-(4-fluorophenyl)-benzamide] |
| 107 | 205 | CC(C)c1nnnn1-c1cc(C(=O)NC(C)(C)C#N)cc(-c2ccc(Cl)cc2)c1 [Example 101, 3-(4-Chlorophenyl)-N-(2-cyanopropan-2-yl)-5-(5-propan-2-yltetrazol-1-yl)-benzamide] |
| 222 | 120 | Cc1ccc(-c2cc(C(=O)NC(C)(C)C)cc(-n3nnnc3C(C)(C)C)c2)cc1 [Example 102, N-tert-Butyl-3-(5-tert-butyltetrazol-1-yl)-5-(4-methylphenyl)-benzamide] |
| 190.5 | 260 | Cc1cc(-c2cc(C(=O)NC(C)(C)C)cc(-n3nnnc3C(C)(C)C)c2)ccc1F [Example 103, N-tert-Butyl-3-(5-tert-butyltetrazol-1-yl)-5-(4-fluoro-3-methylphenyl)-benzamide] |
| 241 | 190 | CC(C)(C)NC(=O)c1cc(-c2ccc(C(F)(F)F)cc2)cc(-n2nnnc2C(C)(C)C)c1 [Example 104, N-tert-Butyl-3-(5-tert-butyltetrazol-1-yl)-5-[4-(trifluoromethyl)-phenyl]-benzamide] |
| 240.5 | 290 | CC(C)(C)NC(=O)c1cc(-c2ccc(Cl)c(F)c2)cc(-n2nnnc2C(C)(C)C)c1 [Example 105, N-tert-Butyl-3-(5-tert-butyltetrazol-1-yl)-5-(4-chloro-3-fluorophenyl)-benzamide] |
| 225.5 | 260 | CC(C)(C)NC(=O)c1cc(-c2ccc(F)c(F)c2)cc(-n2nnnc2C(C)(C)C)c1 [Example 106, N-tert-Butyl-3-(5-tert-butyltetrazol-1-yl)-5-(3,4-difluorophenyl)-benzamide] |
| 115 | 280 | CC(C)(C)NC(=O)c1cc(-c2ccc(C3CC3)cc2)cc(-n2nnnc2C(C)(C)C)c1 [Example 107, N-tert-Butyl-3-(5-tert-butyltetrazol-1-yl)-5-(4-cyclopropylphenyl)-benzamide] |
| 227.5 | 420 | Cc1ccc(-c2cc(C(=O)NC(C)(C)C)cc(-n3nnnc3C(C)(C)C)c2)cc1F [Example 108, N-tert-Butyl-3-(5-tert-butyltetrazol-1-yl)-5-(3-fluoro-4-methylphenyl)-benzamide] |
| 91.5 | 370 | Cc1ccc(-c2cc(C(=O)NC(C)(C)C3CC3)cc(-n3nnnc3C(C)(C)C)c2)cc1 [Example 109, 3-(5-tert-Butyltetrazol-1-yl)-N-(2-cyclopropylpropan-2-yl)-5-(4-methylphenyl)-benzamide] |
| 88 | 490 | Cc1cc(-c2cc(C(=O)NC(C)(C)C3CC3)cc(-n3nnnc3C(C)(C)C)c2)ccc1F [Example 110, 3-(5-tert-Butyltetrazol-1-yl)-N-(2-cyclopropylpropan-2-yl)-5-(4-fluoro-3-methylphenyl)-benzamide] |
| 95.5 | 500 | CC(C)(C)c1nnnn1-c1cc(C(=O)NC(C)(C)C2CC2)cc(-c2ccc(C(F)(F)F)cc2)c1 [Example 111, 3-(5-tert-Butyltetrazol-1-yl)-N-(2-cyclopropylpropan-2-yl)-5-[4-(trifluoromethyl)-phenyl]-benzamide] |
| 106.5 | 530 | CC(C)(C)c1nnnn1-c1cc(C(=O)NC(C)(C)C2CC2)cc(-c2ccc(Cl)c(F)c2)c1 [Example 112, 3-(5-tert-Butyltetrazol-1-yl)-5-(4-chloro-3-fluorophenyl)-N-(2-cyclopropylpropan-2-yl)-benzamide] |
| 90 | 350 | CC(C)(C)c1nnnn1-c1cc(C(=O)NC(C)(C)C2CC2)cc(-c2ccc(F)c(F)c2)c1 [Example 113, 3-(5-tert-Butyltetrazol-1-yl)-N-(2-cyclopropylpropan-2-yl)-5-(3,4-difluorophenyl)-benzamide] |
| 95 | 620 | CC(C)(C)c1nnnn1-c1cc(C(=O)NC(C)(C)C2CC2)cc(-c2ccc(C3CC3)cc2)c1 [Example 114, 3-(5-tert-Butyltetrazol-1-yl)-5-(4-cyclopropylphenyl)-N-(2-cyclopropylpropan-2-yl)-benzamide] |
